Measurements as given in patent US11167006B2 (Shanghai Tianci Life Science Development Co., Ltd., priority 2016, dated 2021).
Square brackets hold non-standard residues; d marks the D form. Peptide text beside a SMILES is read from it. NMeY = CN[C@@H](Cc1ccc(O)cc1)C(=O)O; NMeF = CN[C@@H](Cc1ccccc1)C(=O)O

Each molecule was assayed on acute pain caused by photothermal therapy in male mice of Kunming strain (assay: Mouse photothermal tail flick analgesia experiment). Conditions: lateral ventricle injection.
Assay type: in vivo
Description: After the drug was injected into the lateral ventricle, intrathecal, subcutaneous, and intraperitoneal, the modulating activity on pain was measured by the photothermal tail flick test in mouse.
In the lateral ventricle administration, the lateral ventricle tube-buried surgery of the mouse should be performed in advance to ensure the accuracy of the drug injection site. A brain stereotaxic instrument was used in the lateral ventricle tube-buried surgery of the mouse. Male mice of Kunming strain, weighing 21±2 g; brain stereotaxic instrument is Jiangwan I. After the mice were anesthetized with sodium pentobarbital (i.p., 80 mg/kg mouse body weight), the hair in the head surgery area of the mouse was cut off and the mouse was placed on the brain stereotactic instrument and fixed. The surgery area was disinfected with iodophor, the scalp was opened along the sagittal suture to reveal the skull and the position of the anterior fontanelle can be found. 3 mm backward and 1 mm left/right from the anterior fontanelle, the upper position of the lateral ventricle can be found. A self-made stainless steel tube (a section of 24-gauge, which is connected to a small section of PE-10 tube) is inserted 3 mm downward according to the above position, which is the lateral ventricle. A section of stainless steel string (28-gauge) is inserted into the above-mentioned steel tube to prevent cerebrospinal fluid spillage and foreign matter infection and block the steel pipe. The steel tube is fixed with medical dental powder and glue, and after solidification, the wound is sutured. After the surgery, the mice were recovered tier 4 days, and the follow-up experiment was started on the 5th day. Surgical instruments, stainless steel tubes, etc. involved in the experiment need to be disinfected before the surgery. The mouse lateral ventricle was injected with 4 μl of the drug each time, and then the steel tube was rinsed with 1 μl of physiological saline.
Spinal cord level administration is performed by intrathecal injection in conscious mice, and the specific procedure is described in the method reported by Hylden and Wilcox (Eur. J. Pharmacol. 1980, 67: 313). A 25 μL microinjector was inserted directly into the subarachnoid space between L5 and L6.
The intraperitoneal administration was directly injected using a 1 mL syringe at an injection volume of 10 μl/g body weight. At the time of injection, the mouse was held by left hand with their abdomen facing up and the head was at low position while the tail was at high position. The side of the midline of the abdomen was taken, the needle hole of the syringe was upward, the needle tip penetrates into the skin in a direction less than 20 degrees, the needle tip was slightly pushed in the direction of the mouse head and sticking abdominal wall, and then punctures into the abdominal cavity in the direction of 45 degrees, and was withdrawn to confirm that it has not been pierced into the blood vessel or the intestine, afterwards the drug solution is slowly pushed out.
Subcutaneous injection was also administered directly using a 1 mL syringe in an injection volume of 10 μl/g body weight. At the time of injection, the neck and tail of the mouse were fixed in the left hand, and the head and body were inclined downward at 45 degrees. The needle hole of the syringe is upward, the needle tip is slowly pierced into the skin on the right side of the back center line at an angle of less than 20 degrees, and the needle tip is lightly picked up to confirm that there is no piercing, afterwards the drug solution is slowly pushed out.
Male mice of Kunming strain were used to detect the effects of drugs on pain perception using a photothermal tail flick instrument. The ambient temperature is controlled at 22±1° C., and the experimental animals are free to eat and drink. The basic tail flick incubation period (3-5 seconds) was determined prior to administration, and mice that were too sensitive or dull were discarded. […]

| SMILES | ED50 value (nmol) (95% confidence interval), analgesic activity |
| --- | --- |
| CN[C@@H](Cc1ccc(O)cc1)C(=O)N[C@H](C)C(=O)NCC(=O)N[C@@H](Cc1ccccc1)C(=O)N[C@@H](CCC(N)=O)C(=O)N1CCC[C@H]1C(=O)N[C@@H](CCC(N)=O)C(=O)N[C@@H](CCCNC(=N)N)C(=O)N[C@@H](Cc1ccccc1)C(N)=O [Compound 1] (H-[NMeY][dA]GFQPQRF-NH2) | 1.2980 (1.2000 to 1.4050) nmol |
| C[C@@H](NC(=O)[C@@H](N)Cc1ccc(O)cc1)C(=O)NCC(=O)N(C)[C@@H](Cc1ccccc1)C(=O)N[C@@H](CCC(N)=O)C(=O)N1CCC[C@H]1C(=O)N[C@@H](CCC(N)=O)C(=O)N[C@@H](CCCNC(=N)N)C(=O)N[C@@H](Cc1ccccc1)C(N)=O [Compound 2, Tyr-D-Ala-Gly-NMe-Phe-Gln-Pro-Gln-Arg-Phe-NH2] (H-Y[dA]G[NMeF]QPQRF-NH2) | 0.3862 (0.3590 to 0.4154) nmol |
| C[C@@H](NC(=O)[C@@H](N)Cc1ccc(O)cc1)C(=O)NCC(=O)N[C@@H](Cc1ccccc1)C(=O)NCC(=O)N1CCC[C@H]1C(=O)N[C@@H](CCC(N)=O)C(=O)N[C@@H](CCCNC(=N)N)C(=O)N[C@@H](Cc1ccccc1)C(N)=O [Compound 3] (H-Y[dA]GFGPQRF-NH2) | 0.4172 (0.3798 to 0.4583) nmol |
| CC(C)C[C@H](NC(=O)[C@H](Cc1ccccc1)NC(=O)CNC(=O)[C@@H](C)NC(=O)[C@@H](N)Cc1ccc(O)cc1)C(=O)N1CCC[C@H]1C(=O)N[C@@H](CCC(N)=O)C(=O)N[C@@H](CCCNC(=N)N)C(=O)N[C@@H](Cc1ccccc1)C(N)=O [Compound 4] (H-Y[dA]GFLPQRF-NH2) | 0.1865 (0.1509 to 0.2304) nmol |
| CSCC[C@H](NC(=O)[C@H](Cc1ccccc1)NC(=O)CNC(=O)[C@@H](C)NC(=O)[C@@H](N)Cc1ccc(O)cc1)C(=O)N1CCC[C@H]1C(=O)N[C@@H](CCC(N)=O)C(=O)N[C@@H](CCCNC(=N)N)C(=O)N[C@@H](Cc1ccccc1)C(N)=O [Compound 5] (H-Y[dA]GFMPQRF-NH2) | 0.2957 (0.2637 to 0.3338) nmol |
| CSCC[C@@H](NC(=O)[C@H](Cc1ccccc1)NC(=O)CNC(=O)[C@@H](C)NC(=O)[C@@H](N)Cc1ccc(O)cc1)C(=O)N1CCC[C@H]1C(=O)N[C@@H](CCC(N)=O)C(=O)N[C@@H](CCCNC(=N)N)C(=O)N[C@@H](Cc1ccccc1)C(N)=O [Compound 6, Tyr-D-Ala-Gly-Phe-D-Met-Pro-Gln-Arg-Phe-NH2] (H-Y[dA]GF[dM]PQRF-NH2) | 0.3986 (0.3716 to 0.4275) nmol |
| CC(C)C[C@@H](NC(=O)[C@H](Cc1ccccc1)NC(=O)CNC(=O)[C@@H](C)NC(=O)[C@@H](N)Cc1ccc(O)cc1)C(=O)N1CCC[C@H]1C(=O)N[C@@H](CCC(N)=O)C(=O)N[C@@H](CCCNC(=N)N)C(=O)N[C@@H](Cc1ccccc1)C(N)=O [Compound 7, Tyr-D-Ala-Gly-Phe-D-Leu-Pro-Gln-Arg-Phe-NH2] (H-Y[dA]GF[dL]PQRF-NH2) | 0.4367 (0.3865 to 0.4934) nmol |
| C[C@@H](NC(=O)[C@@H](N)Cc1ccc(O)cc1)C(=O)NCC(=O)N[C@@H](Cc1ccccc1)C(=O)N[C@H](C)C(=O)N1CCC[C@H]1C(=O)N[C@@H](CCC(N)=O)C(=O)N[C@@H](CCCNC(=N)N)C(=O)N[C@@H](Cc1ccccc1)C(N)=O [Compound 8, Tyr-D-Ala-Gly-Phe-D-Ala-Pro-Gln-Arg-Phe-NH2] (H-Y[dA]GF[dA]PQRF-NH2) | 0.3361 (0.2864 to 0.3944) nmol |
